Assay results from doi:10.1101/2020.07.22.215434v1 (biorxiv, 2020).

Experiments:
Test in all cases: whole-cell patch clamp
Format in all cases: cell-based
hCav 3.2 [1] = target: T1, hCav 3.2 (Homo sapiens, UniProt O95180); settings: tonic block, step -100 to -30 mV, 5 mM Ba2+, pH 7.4, room temperature
hCav 3.2 [2] = target: T1, hCav 3.2; settings: read-out: % inhibition at 10 μM
hCav 3.1 = hCav 3.1 (Homo sapiens, UniProt O43497); settings: tonic block, step -100 to -30 mV, 5 mM Ba2+, pH 7.4, room temperature
Sequence of hCav 3.1 (O43497 whole entry): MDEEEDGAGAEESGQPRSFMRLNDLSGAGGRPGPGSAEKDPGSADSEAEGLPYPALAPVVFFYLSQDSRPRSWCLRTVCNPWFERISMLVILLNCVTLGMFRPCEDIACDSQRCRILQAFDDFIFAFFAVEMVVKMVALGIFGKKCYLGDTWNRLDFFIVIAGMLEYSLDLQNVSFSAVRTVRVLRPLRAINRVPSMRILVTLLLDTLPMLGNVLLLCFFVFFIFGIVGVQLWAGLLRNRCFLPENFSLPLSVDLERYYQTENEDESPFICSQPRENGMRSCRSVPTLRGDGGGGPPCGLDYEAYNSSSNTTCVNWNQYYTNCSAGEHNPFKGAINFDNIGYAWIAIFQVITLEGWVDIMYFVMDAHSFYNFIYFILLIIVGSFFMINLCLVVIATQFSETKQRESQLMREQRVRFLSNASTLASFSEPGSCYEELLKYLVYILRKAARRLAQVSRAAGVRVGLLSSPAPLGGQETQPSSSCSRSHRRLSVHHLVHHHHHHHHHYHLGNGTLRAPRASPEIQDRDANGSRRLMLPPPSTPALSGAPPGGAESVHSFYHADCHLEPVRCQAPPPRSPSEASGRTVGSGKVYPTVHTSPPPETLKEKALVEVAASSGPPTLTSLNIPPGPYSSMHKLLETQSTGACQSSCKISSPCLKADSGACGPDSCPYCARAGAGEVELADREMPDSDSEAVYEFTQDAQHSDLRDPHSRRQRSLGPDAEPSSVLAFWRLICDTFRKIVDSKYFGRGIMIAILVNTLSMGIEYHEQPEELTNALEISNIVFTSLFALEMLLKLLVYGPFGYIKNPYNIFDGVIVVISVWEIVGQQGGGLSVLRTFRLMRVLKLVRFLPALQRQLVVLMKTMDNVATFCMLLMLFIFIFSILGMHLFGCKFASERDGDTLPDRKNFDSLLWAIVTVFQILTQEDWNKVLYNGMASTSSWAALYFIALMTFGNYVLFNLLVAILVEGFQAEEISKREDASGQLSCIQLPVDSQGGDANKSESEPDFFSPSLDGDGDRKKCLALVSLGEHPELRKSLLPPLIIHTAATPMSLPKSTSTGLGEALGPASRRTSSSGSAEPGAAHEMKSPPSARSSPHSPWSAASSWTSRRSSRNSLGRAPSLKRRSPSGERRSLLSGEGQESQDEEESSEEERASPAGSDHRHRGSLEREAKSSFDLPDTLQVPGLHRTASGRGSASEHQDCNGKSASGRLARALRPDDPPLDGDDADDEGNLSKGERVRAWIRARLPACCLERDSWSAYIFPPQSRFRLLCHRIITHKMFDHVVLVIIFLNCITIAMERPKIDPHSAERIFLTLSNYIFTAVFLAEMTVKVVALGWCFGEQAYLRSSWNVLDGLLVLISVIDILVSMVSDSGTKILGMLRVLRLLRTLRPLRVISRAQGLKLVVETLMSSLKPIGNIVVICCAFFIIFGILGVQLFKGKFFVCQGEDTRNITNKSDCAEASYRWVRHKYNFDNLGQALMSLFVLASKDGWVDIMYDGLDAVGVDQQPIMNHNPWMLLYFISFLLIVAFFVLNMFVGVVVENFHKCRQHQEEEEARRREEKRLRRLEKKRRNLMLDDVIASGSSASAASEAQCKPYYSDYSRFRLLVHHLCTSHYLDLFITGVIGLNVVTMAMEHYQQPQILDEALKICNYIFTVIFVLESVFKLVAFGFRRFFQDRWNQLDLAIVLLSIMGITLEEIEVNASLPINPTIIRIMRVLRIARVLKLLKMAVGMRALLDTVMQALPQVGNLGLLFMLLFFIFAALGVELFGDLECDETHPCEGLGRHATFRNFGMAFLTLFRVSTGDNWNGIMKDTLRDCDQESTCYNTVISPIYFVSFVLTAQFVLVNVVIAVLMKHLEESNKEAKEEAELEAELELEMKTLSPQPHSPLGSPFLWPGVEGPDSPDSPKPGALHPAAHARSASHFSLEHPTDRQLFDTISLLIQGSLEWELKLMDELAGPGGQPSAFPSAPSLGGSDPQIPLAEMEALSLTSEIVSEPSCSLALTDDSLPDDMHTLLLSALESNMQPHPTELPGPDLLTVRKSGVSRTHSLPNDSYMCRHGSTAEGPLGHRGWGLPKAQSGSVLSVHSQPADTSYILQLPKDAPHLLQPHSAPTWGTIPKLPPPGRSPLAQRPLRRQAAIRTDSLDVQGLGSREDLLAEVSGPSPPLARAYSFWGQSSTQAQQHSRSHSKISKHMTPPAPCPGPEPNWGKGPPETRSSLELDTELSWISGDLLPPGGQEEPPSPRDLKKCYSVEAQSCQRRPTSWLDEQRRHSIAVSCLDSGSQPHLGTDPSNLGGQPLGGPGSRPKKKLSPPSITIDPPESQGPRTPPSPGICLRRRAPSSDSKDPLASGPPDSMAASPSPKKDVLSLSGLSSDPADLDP

T1 sequence (O95180 whole entry): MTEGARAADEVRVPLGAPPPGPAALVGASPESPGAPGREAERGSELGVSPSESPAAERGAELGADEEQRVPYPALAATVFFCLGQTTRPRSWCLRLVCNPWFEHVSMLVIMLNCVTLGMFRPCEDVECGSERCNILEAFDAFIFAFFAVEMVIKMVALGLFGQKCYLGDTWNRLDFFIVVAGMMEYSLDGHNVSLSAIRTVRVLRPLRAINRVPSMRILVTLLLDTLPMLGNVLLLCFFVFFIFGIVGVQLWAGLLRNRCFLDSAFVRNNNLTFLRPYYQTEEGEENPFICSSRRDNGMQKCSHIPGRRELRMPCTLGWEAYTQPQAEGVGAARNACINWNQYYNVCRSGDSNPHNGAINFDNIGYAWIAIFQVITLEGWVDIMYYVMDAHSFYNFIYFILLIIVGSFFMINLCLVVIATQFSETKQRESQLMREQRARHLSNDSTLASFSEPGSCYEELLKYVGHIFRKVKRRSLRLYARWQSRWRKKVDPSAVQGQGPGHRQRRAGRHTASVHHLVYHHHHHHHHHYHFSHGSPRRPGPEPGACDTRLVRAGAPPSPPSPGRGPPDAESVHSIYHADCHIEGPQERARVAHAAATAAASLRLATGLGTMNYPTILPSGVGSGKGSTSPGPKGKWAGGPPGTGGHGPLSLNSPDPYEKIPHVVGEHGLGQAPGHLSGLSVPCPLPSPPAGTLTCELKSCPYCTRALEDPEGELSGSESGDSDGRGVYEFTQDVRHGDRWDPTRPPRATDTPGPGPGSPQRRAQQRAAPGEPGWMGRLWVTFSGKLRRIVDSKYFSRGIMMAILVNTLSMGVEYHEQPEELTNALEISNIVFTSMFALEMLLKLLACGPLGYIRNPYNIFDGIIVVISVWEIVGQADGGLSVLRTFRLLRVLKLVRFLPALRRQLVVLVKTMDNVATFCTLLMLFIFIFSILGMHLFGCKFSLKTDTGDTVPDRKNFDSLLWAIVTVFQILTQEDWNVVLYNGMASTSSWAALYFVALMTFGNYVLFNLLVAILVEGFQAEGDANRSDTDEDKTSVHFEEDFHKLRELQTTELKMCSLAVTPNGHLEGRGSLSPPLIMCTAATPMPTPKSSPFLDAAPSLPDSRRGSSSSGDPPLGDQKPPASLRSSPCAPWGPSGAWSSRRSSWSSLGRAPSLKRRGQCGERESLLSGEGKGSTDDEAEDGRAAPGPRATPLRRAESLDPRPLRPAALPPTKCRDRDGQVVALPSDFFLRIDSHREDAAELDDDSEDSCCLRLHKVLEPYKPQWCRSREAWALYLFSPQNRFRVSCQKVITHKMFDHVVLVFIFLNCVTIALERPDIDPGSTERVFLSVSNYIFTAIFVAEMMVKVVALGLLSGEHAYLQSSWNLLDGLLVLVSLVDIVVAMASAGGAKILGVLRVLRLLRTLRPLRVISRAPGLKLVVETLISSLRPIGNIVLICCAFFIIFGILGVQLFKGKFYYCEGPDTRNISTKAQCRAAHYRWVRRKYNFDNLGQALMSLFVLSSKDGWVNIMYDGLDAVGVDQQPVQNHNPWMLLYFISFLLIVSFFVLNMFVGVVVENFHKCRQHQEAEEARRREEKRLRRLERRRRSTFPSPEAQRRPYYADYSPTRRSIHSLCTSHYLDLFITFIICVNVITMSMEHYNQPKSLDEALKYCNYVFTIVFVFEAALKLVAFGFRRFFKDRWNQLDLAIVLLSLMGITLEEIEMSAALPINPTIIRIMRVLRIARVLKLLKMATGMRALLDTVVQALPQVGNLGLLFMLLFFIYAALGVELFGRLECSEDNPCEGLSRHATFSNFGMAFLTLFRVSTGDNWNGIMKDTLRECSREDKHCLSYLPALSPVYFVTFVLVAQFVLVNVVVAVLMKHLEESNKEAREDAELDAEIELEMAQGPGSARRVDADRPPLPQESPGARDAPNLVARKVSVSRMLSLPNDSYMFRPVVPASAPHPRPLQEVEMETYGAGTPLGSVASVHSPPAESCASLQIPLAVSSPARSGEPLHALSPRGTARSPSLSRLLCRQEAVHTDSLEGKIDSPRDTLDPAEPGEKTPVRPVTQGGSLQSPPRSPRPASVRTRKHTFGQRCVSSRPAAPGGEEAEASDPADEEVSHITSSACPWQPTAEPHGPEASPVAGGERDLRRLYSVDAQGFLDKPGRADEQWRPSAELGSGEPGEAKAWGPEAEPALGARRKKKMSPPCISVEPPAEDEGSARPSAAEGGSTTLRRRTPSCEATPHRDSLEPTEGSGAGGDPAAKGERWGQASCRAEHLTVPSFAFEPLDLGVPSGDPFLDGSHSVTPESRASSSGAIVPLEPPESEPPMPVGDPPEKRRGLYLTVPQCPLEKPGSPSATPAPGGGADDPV

COC(=O)C(NC(=O)c1nn(CC2CCCCC2)c2ccccc12)C(C)C (centres unmarked) [AMB-CHMINACA, methyl 2-((1-(cyclohexylmethyl)-1H-indazole-3-carbonyl)amino)-3-methylbutanoate]
IC50 (hCav 3.2 [1]): 740 ± 300 nM

C=C(C)[C@@H]1CCC(C)=C[C@H]1c1c(O)cc(CCCCC)cc1O [CBD]
inhibition at 10 µM (hCav 3.2 [2]): 57 ± 5%

COC(=O)C(NC(=O)c1cn(CC2CCCCC2)c2ccccc12)C(C)(C)C (centres unmarked) [MDMB-CHMICA, methyl-2-[[1-(cyclohexylmethyl)indole-3-carbonyl]amino]-3,3-dimethylbutanoate]
IC50 (hCav 3.2 [1]): 1500 ± 200 nM

COC(=O)[C@@H](NC(=O)c1nn(CC2CCCCC2)c2ccccc12)C(C)(C)C [MDMB-CHMINACA]
% inhibition at 10 μM (hCav 3.1): > 80%

CCCCCc1cc(O)c2c(c1)OC(C)(C)[C@@H]1CCC(C)=C[C@@H]21 [Δ9-THC]
inhibition at 10 µM (hCav 3.2 [2]): 43 ± 2.4%
